Consider 3 molecules from patent US4120953A, “Novel 2,2', 2"-[s-phenenyltris(sulfonylimino)tris]-[2-deoxy-α-D-glucopyranose] , dodecakis (H-sulfate) compounds and their salts” (American Cyanamid Company, priority 1977, dated 1978).

Experiment [1] concerns shunt pathway activated by cobra venom factor. In words: Test, Code 036 (C-Shunt inhibitor). In kind it is cell-based. The following applies: serial two-fold dilution assay; lysis of fragile human erythrocytes in autologous serum.
The test system of experiment [2] is late components of human complement (C3-C9). In words: Test, Code 035 (C3-C9 inhibitor). In kind it is biochemical. The following applies: serial two-fold dilution assay; protection of EAC 142 from lysis by human C3-C9. Further details: key: N = negative. The method, then: (§1) This test measures the ability of activated human C1 to destroy fluid phase human C2 in the presence of C4 and appropriate dilutions of the test compound. An active inhibitor protects C2 from C1 and C4; (ii) Test, Code 035 (C3-C9 inhibitor) - This test determines the ability of the late components of human complement (C3-C9) to lyse EAC 142 in the presence of appropriate dilutions of the test compound. […] The lesion is measured in terms of diameter, edema and hemorrhage and the extent to which a combined index of these is inhibited by prior intraperitoneal injection of the test compound at […] is then reported, unless otherwise stated; (v) Forssman Shock Test -- Lethal shock is produced in guinea pigs by an i.v. injection of anti-Forssman antiserum and the harmonic mean death time of treated guinea pigs is compared with that of simultaneous controls; (vi) Complement Level Reduction Test -- In this test, the above dosed guinea pigs, or others, are bled for serum and the complement level is determined in undiluted serum by the capillary tube method of U.S. Pat. No. 3,876,376 and compared to undosed control guinea pigs; and (vii) Cap 50 Test -- Here, appropriate amounts of the test compound are added to a pool of guinea pig serum in vitro, after which the undiluted serum capillary tube assay referred to above is run. […]

Another experiment deals with activated human C1 (Homo sapiens, UniProt P09871). Kind of experiment: Test, Code 026 (C1 inhibitor). The format is biochemical. The following applies: serial two-fold dilution assay; higher well numbers indicate higher activity; protection of human C2 from C1 and C4. The method, then:
as §1

Where a name gives a salt, the structure may show the parent alone.

On to `O=S(=O)(O)OC[C@H]1O[C@H](OS(=O)(=O)O)[C@H](NS(=O)(=O)c2cc(S(=O)(=O)N[C@H]3[C@@H](OS(=O)(=O)O)O[C@H](COS(=O)(=O)O)[C@@H](OS(=O)(=O)O)[C@@H]3OS(=O)(=O)O)cc(S(=O)(=O)N[C@H]3[C@@H](OS(=O)(=O)O)O[C@H](COS(=O)(=O)O)[C@@H](OS(=O)(=O)O)[C@@H]3OS(=O)(=O)O)c2)[C@@H](OS(=O)(=O)O)[C@@H]1OS(=O)(=O)O` [2,2',2"-[ s-Phenenyltris(sulfonylimino)]-tris[2-deoxy-α-D-gl] [2,2',2"-[s-Phenenyltris(sulfonylimino)]tris[2-deoxy-α-D-glucopyranose], dodecakis (H-sulfate) dodecasalt with trimethylamine], for which the “In Vitro Activity Shunt Inhibition 036 Wells” value in experiment [1] is reported as “+2 Wells”.
On the same count and under the same terms, the result for `O=S(=O)(O)OC[C@H]1O[C@H](OS(=O)(=O)O)[C@H](NS(=O)(=O)c2cc(S(=O)(=O)N[C@H]3[C@@H](OS(=O)(=O)O)O[C@H](COS(=O)(=O)O)[C@@H](OS(=O)(=O)O)[C@@H]3OS(=O)(=O)O)cc(S(=O)(=O)N[C@H]3[C@@H](OS(=O)(=O)O)O[C@H](COS(=O)(=O)O)[C@@H](OS(=O)(=O)O)[C@@H]3OS(=O)(=O)O)c2)[C@@H](OS(=O)(=O)O)[C@@H]1OS(=O)(=O)O` [2,2',2"-[s-Phenenyltris(sulfonylimino)]-tris[2-deoxy-α-D-glu] [2,2',2"-[s-Phenenyltris(sulfonylimino)]tris[2-deoxy-α-D-glucopyranose], dodecakis (H-sulfate) dodecasodium salt] reads “+1 Wells”.
As to `O=S(=O)(O)OC[C@H]1O[C@H](OS(=O)(=O)O)[C@H](NS(=O)(=O)c2cc(S(=O)(=O)N[C@H]3[C@@H](OS(=O)(=O)O)O[C@H](COS(=O)(=O)O)[C@@H](OS(=O)(=O)O)[C@@H]3OS(=O)(=O)O)cc(S(=O)(=O)N[C@H]3[C@@H](OS(=O)(=O)O)O[C@H](COS(=O)(=O)O)[C@@H](OS(=O)(=O)O)[C@@H]3OS(=O)(=O)O)c2)[C@@H](OS(=O)(=O)O)[C@@H]1OS(=O)(=O)O` [2,2',2"-[s-Phenenyltris(sulfonylimino)]tris[2-deoxy-α-D-glucopyranose], dodecakis (H-sulfate) dodecasalt with trimethylamine], in experiment [2], the “In Vitro Activity C-Late 035 Wells” value is reported as “N”. At activated human C1, the “In Vitro Activity C1 026 Wells” value was “+7 Wells”.
